# In ChEMBL document CHEMBL1156661, “Myrtucommulones F-I, phloroglucinols with thyrotropin-releasing hormone receptor-2 binding affinity from the seeds of Corymbia scabrida” (J Nat Prod, 2008):
# Test: Displacement of [H3]3-methylhistidylTRH from rat recombinant TRH2 receptor expressed in […] cells
# Type: cell-based
row,SMILES,IC50 [µM]
1,CC(C)C(=O)c1c(O)c([C@H](C2=C(O)C(C)(C)C(=O)C(C)(C)C2=O)C(C)C)c(O)c([C@H](C2=C(O)C(C)(C)C(=O)C(C)(C)C2=O)C(C)C)c1O [MYRTUCOMMULONE A],39
2,CC(C)C(=O)c1c(O)c2c(c3c1O[C@@]1(O)[C@@H](C(O)C(C)(C)C(=O)C1(C)C)[C@@H]3C(C)C)OC1=C(C(=O)C(C)(C)C(=O)C1(C)C)[C@@H]2C(C)C (stereo partly specified) [MYRTUCOMMULONE D],11
3,CCCCCC(=O)c1c(O)c2c(c3c1O[C@@]1(O)[C@@H](C(O)C(C)(C)C(=O)C1(C)C)[C@@H]3C(C)C)OC1=C(C(=O)C(C)(C)C(=O)C1(C)C)[C@@H]2CC(C)C (stereo partly specified) [MYRTUCOMMULONE I],16

# Continued by falling IC50, values first:
row,IC50 [µM],SMILES
1,31,CCCCCC(=O)c1c(O)c([C@@H](CC(C)C)C2=C(O)C(C)(C)C(=O)C(C)(C)C2=O)c(O)c([C@H](C2=C(O)C(C)(C)C(=O)C(C)(C)C2=O)C(C)C)c1O [MYRTUCOMMULONE H]
2,24,CCCCCC(=O)c1c(O)c2c(c3c1O[C@@]1(O)[C@@H](C(O)C(C)(C)C(=O)C1(C)C)[C@@H]3C(C)C)OC1=C(C(=O)C(C)(C)C(=O)C1(C)C)[C@@H]2C(C)C (stereo partly specified) [MYRTUCOMMULONE G]
3,16,CCCCCC(=O)c1c(O)c([C@H](C2=C(O)C(C)(C)C(=O)C(C)(C)C2=O)C(C)C)c(O)c([C@H](C2=C(O)C(C)(C)C(=O)C(C)(C)C2=O)C(C)C)c1O [MYRTUCOMMULONE F]
